The numbers were not newly measured in patent publication US7442671B2, “O-phenylphenol/alkoxylated amine wood protection compositions” (Contechem Inc., priority 2004, dated 2008), which cites them from elsewhere.

Consider `Oc1ccccc1-c1ccccc1` [O-phenylphenol, o-phenylphenol], for which the solubility in water entry is on record as “only slightly soluble in water”.
